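How tested: cells in 96-well plates exposed to compound for 48 hours at five concentrations. GI50 marks 50% less growth. TGI: total growth inhibition.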
How the values were obtained:
Assay in all cases: NCI-60 cell line screen, 48 h
[1] = tested on: SK-MEL-28 melanoma
[2] = tested on: T-47D breast
[3] = tested on: OVCAR-3 ovarian
[4] = tested on: HCC-2998 colon
[5] = tested on: LOX IMVI melanoma
[6] = tested on: PC-3 prostate
[7] = tested on: MDA-MB-435
[8] = tested on: EKVX NSCLC
[9] = tested on: MALME-3M melanoma
[10] = tested on: HL-60(TB) leukemia
[11] = tested on: MCF7 breast
[12] = tested on: K-562 leukemia
[13] = tested on: HT29 colon
[14] = tested on: SK-OV-3 ovarian
[15] = tested on: HCT-15 colon
[16] = tested on: A549 NSCLC
[17] = tested on: SW-620 colon
[18] = tested on: HOP-62 NSCLC
[19] = tested on: KM12 colon
[20] = tested on: 786-0 renal
[21] = tested on: RXF 393 renal
[22] = tested on: CAKI-1 renal
[23] = tested on: CCRF-CEM leukemia
[24] = tested on: DU-145 prostate
[25] = tested on: A498 renal
[26] = tested on: BT-549 breast
[27] = tested on: SF-268 CNS
[28] = tested on: SN12C renal
[29] = tested on: NCI/ADR-RES ovarian
[30] = tested on: TK-10 renal
[31] = tested on: ACHN renal
[32] = tested on: U251 CNS
[33] = tested on: HS 578T breast
[34] = tested on: SK-MEL-5 melanoma
[35] = tested on: NCI-H522 lung
[36] = tested on: SNB-75 CNS
[37] = tested on: MOLT-4 leukemia
[38] = tested on: MDA-MB-231 breast
[39] = tested on: OVCAR-4 ovarian
[40] = tested on: SF-295 CNS
[41] = tested on: COLO 205 colon
[42] = tested on: UACC-257 melanoma
[43] = tested on: SF-539 CNS
[44] = tested on: IGROV1 ovarian
[45] = tested on: SR leukemia
[46] = tested on: HCT-116 colon
[47] = tested on: NCI-H460 lung
[48] = tested on: OVCAR-8 ovarian
[49] = tested on: M14 melanoma
[50] = tested on: NCI-H226 lung
[51] = tested on: OVCAR-5 ovarian
[52] = tested on: SNB-19 CNS
[53] = tested on: RPMI-8226 leukemia
[54] = tested on: UACC-62 melanoma
[55] = tested on: SK-MEL-2 melanoma
[56] = tested on: NCI-H23 lung
[57] = tested on: HOP-92 NSCLC
[58] = tested on: UO-31 renal

SMILES: COc1cccc(/C=C2\COc3ccc(O)c(O)c3C2=O)c1
- GI50 [1]: 1.78 µM
- TGI [1]: 4.13 µM
- GI50 [2]: 1.58 µM
- TGI [2]: 4.38 µM
- GI50 [3]: 0.629 µM
- TGI [3]: 1.93 µM
- GI50 [4]: 1.6 µM
- TGI [4]: 3.03 µM
- GI50 [5]: 0.74 µM
- TGI [5]: 2.06 µM
- GI50 [6]: 0.77 µM
- TGI [6]: 6.04 µM
- GI50 [7]: 1.46 µM
- TGI [7]: 4.12 µM
- GI50 [8]: 1.82 µM
- TGI [8]: 3.95 µM
- GI50 [9]: 1.45 µM
- TGI [9]: 3.71 µM
- GI50 [10]: 0.405 µM
- TGI [10]: 3.2 µM
- GI50 [11]: 0.438 µM
- TGI [11]: 3.12 µM
- GI50 [12]: 0.396 µM
- TGI [12]: > 100 µM
- GI50 [13]: 2.26 µM
- TGI [13]: 5.07 µM
- GI50 [14]: 3.38 µM
- TGI [14]: 12.7 µM
- GI50 [15]: 0.469 µM
- TGI [15]: 4.91 µM
- GI50 [16]: 2.41 µM
- TGI [16]: 10.3 µM
- GI50 [17]: 1.16 µM
- TGI [17]: 3.85 µM
- GI50 [18]: 2.8 µM
- TGI [18]: 10.4 µM
- GI50 [19]: 1.44 µM
- TGI [19]: 3.25 µM
- GI50 [20]: 1.47 µM
- TGI [20]: 3.86 µM
- GI50 [21]: 1.19 µM
- TGI [21]: 2.48 µM
- GI50 [22]: 1.28 µM
- TGI [22]: 2.71 µM
- GI50 [23]: 0.263 µM
- TGI [23]: 1.11 µM
- GI50 [24]: 1.68 µM
- TGI [24]: 4.16 µM
- GI50 [25]: 1.71 µM
- TGI [25]: 4 µM
- GI50 [26]: 1.97 µM
- TGI [26]: 5.08 µM
- GI50 [27]: 1.82 µM
- TGI [27]: 5.17 µM
- GI50 [28]: 1.09 µM
- TGI [28]: 3.62 µM
- GI50 [29]: 1.64 µM
- TGI [29]: 5.95 µM
- GI50 [30]: 1.74 µM
- TGI [30]: 3.49 µM
- GI50 [31]: 1.25 µM
- TGI [31]: 2.61 µM
- GI50 [32]: 1.15 µM
- TGI [32]: 2.49 µM
- GI50 [33]: 2.9 µM
- TGI [33]: 21.8 µM
- GI50 [34]: 1.44 µM
- TGI [34]: 2.76 µM
- GI50 [35]: 0.193 µM
- TGI [35]: 0.448 µM
- GI50 [36]: 1.42 µM
- TGI [36]: 10.3 µM
- GI50 [37]: 1.64 µM
- TGI [37]: 17.7 µM
- GI50 [38]: 1.69 µM
- TGI [38]: 6.5 µM
- GI50 [39]: 2.18 µM
- TGI [39]: 9.47 µM
- GI50 [40]: 3.2 µM
- TGI [40]: 10.2 µM
- GI50 [41]: 1.96 µM
- TGI [41]: 3.87 µM
- GI50 [42]: 1.73 µM
- TGI [42]: 4.77 µM
- GI50 [43]: 1.18 µM
- TGI [43]: 3.06 µM
- GI50 [44]: 0.781 µM
- TGI [44]: 3.63 µM
- GI50 [45]: 0.359 µM
- TGI [45]: 6.97 µM
- GI50 [46]: 1.25 µM
- TGI [46]: 2.9 µM
- GI50 [47]: 2.44 µM
- TGI [47]: 8.19 µM
- GI50 [48]: 1.79 µM
- TGI [48]: 13.2 µM
- GI50 [49]: 1.88 µM
- TGI [49]: 4.76 µM
- GI50 [50]: 2.03 µM
- TGI [50]: 5.38 µM
- GI50 [51]: 2.18 µM
- TGI [51]: 4.69 µM
- GI50 [52]: 1.84 µM
- TGI [52]: 5.07 µM
- GI50 [53]: 0.223 µM
- TGI [53]: 0.626 µM
- GI50 [54]: 1.53 µM
- TGI [54]: 3.22 µM
- GI50 [55]: 2.16 µM
- TGI [55]: 5.15 µM
- GI50 [56]: 1.58 µM
- TGI [56]: 3.34 µM
- GI50 [57]: 2.11 µM
- TGI [57]: 8.01 µM
- GI50 [58]: 0.853 µM
- TGI [58]: 2.09 µM

SMILES: S=c1ssnc1-c1ccccn1
- GI50 [1]: 2.87 µM
- TGI [1]: 13 µM
- GI50 [2]: 5.59 µM
- TGI [2]: > 55.5 µM
- GI50 [3]: 3.21 µM
- TGI [3]: 17.8 µM
- GI50 [4]: 3.4 µM
- TGI [4]: 12.7 µM
- GI50 [5]: 2.54 µM
- TGI [5]: 12.1 µM
- GI50 [6]: 3 µM
- TGI [6]: > 34.6 µM
- GI50 [7]: 3.28 µM
- TGI [7]: 16.3 µM
- GI50 [8]: 5.64 µM
- TGI [8]: 22 µM
- GI50 [9]: 7.77 µM
- TGI [9]: 36.1 µM
- GI50 [10]: 1.37 µM
- TGI [10]: 4.65 µM
- GI50 [11]: 2.84 µM
- TGI [11]: > 35.9 µM
- GI50 [12]: 1.4 µM
- TGI [12]: 16.2 µM
- GI50 [13]: 5.28 µM
- TGI [13]: > 40.7 µM
- GI50 [14]: 12.8 µM
- TGI [14]: > 86.9 µM
- GI50 [15]: 2.2 µM
- TGI [15]: 15.7 µM
- GI50 [16]: 8.92 µM
- TGI [16]: 37.9 µM
- GI50 [17]: 2.72 µM
- TGI [17]: 14.5 µM
- GI50 [18]: 3.83 µM
- TGI [18]: 27.9 µM
- GI50 [19]: 3.72 µM
- TGI [19]: 15.4 µM
- GI50 [20]: 2.54 µM
- TGI [20]: > 25.4 µM
- GI50 [21]: 3.05 µM
- TGI [21]: 6.47 µM
- GI50 [22]: 3.07 µM
- TGI [22]: 16.3 µM
- GI50 [23]: 1.27 µM
- TGI [23]: 4.24 µM
- GI50 [24]: 1.34 µM
- TGI [24]: 13.8 µM
- GI50 [25]: 6.8 µM
- TGI [25]: 31.8 µM
- GI50 [26]: 6.38 µM
- TGI [26]: 28.7 µM
- GI50 [27]: 2.71 µM
- TGI [27]: 20.1 µM
- GI50 [28]: 5.91 µM
- TGI [28]: 32 µM
- GI50 [29]: 3.84 µM
- TGI [29]: 39.7 µM
- GI50 [30]: 5.04 µM
- TGI [30]: 32.4 µM
- GI50 [31]: 2.25 µM
- TGI [31]: 14.7 µM
- GI50 [32]: 4.63 µM
- TGI [32]: 33.2 µM
- GI50 [33]: 2.15 µM
- TGI [33]: 7.86 µM
- GI50 [34]: 8.81 µM
- TGI [34]: > 37.6 µM
- GI50 [35]: 1.84 µM
- TGI [35]: 4.12 µM
- GI50 [36]: 3.13 µM
- TGI [36]: > 38.6 µM
- GI50 [37]: 1.27 µM
- TGI [37]: 4.58 µM
- GI50 [38]: 3.44 µM
- TGI [38]: 22 µM
- GI50 [39]: 9.36 µM
- TGI [39]: > 100 µM
- GI50 [40]: 5.17 µM
- TGI [40]: 24.9 µM
- GI50 [41]: 3.96 µM
- TGI [41]: 17.8 µM
- GI50 [42]: 3.1 µM
- TGI [42]: 8.47 µM
- GI50 [43]: 2.52 µM
- TGI [43]: 15.1 µM
- GI50 [44]: 1.81 µM
- TGI [44]: 11 µM
- GI50 [45]: 0.521 µM
- TGI [45]: > 21.5 µM
- GI50 [46]: 1.24 µM
- TGI [46]: > 20.1 µM
- GI50 [47]: 1.82 µM
- TGI [47]: 11.6 µM
- GI50 [48]: 3.17 µM
- TGI [48]: 23 µM
- GI50 [49]: 2.58 µM
- TGI [49]: 19.6 µM
- GI50 [50]: 7.08 µM
- TGI [50]: 25.1 µM
- GI50 [51]: 5.38 µM
- TGI [51]: 25.1 µM
- GI50 [52]: 11.2 µM
- TGI [52]: > 94.8 µM
- GI50 [53]: 2.58 µM
- TGI [53]: 29.3 µM
- GI50 [54]: 5.31 µM
- TGI [54]: 21.1 µM
- GI50 [55]: 1.88 µM
- TGI [55]: 5.73 µM
- GI50 [56]: 3.77 µM
- TGI [56]: 18.4 µM
- GI50 [57]: 1.67 µM
- TGI [57]: 6.73 µM
- GI50 [58]: 3.51 µM
- TGI [58]: 22.2 µM

Source: PubChem BioAssay (NCI)
